Experiments:
[1] = target: Pseudomonas moorei glufosinate-ammonium dehydrogenase E3 (SEQ ID NO: 6) variant PPTGDH-L107R-F188P-G239K-F357G, SEQ ID NO: 9 (Pseudomonas moorei, UniProt A0A1H1HZ48, F188P/F357G/G239K/L107R); experiment: Kinetic parameters of purified mutant PPTGDH-L107R-F188P-G239K-F357G
Experimental: (§1) 1. […] The mutant proteins were purified by Ni-NTA column(1.6×10 cm, Bio-Rad, the USA), and the specific operations were carried out as follows: (1)equilibrate a Ni-NTA column with 5 column volumes of a binding buffer(pH 8.0, 50 mM sodium phosphate buffer containing 0.3 M NaCl) until the baseline is steady; (2)load the sample with a flow rate of 1 mL/min with the amount of the loading sample of 25-40 mg/mL, thereby attaching the target protein to the Ni-NTA column; (3)wash the column with 6 column volumes of buffer A (pH 8.0, 50 mM sodium phosphate buffer containing 0.3 M NaCl and 30 mM imidazole) at a flow rate of 1 mL/min until the baseline is steady; (4)wash the column with buffer B (pH 8.0, 50 mM sodium phosphate buffer containing 0.3 M NaCl and 500 mM imidazole) at a flow rate of 1 mL/min, collect the target protein and dialyze overnight in a pH 7.5, 20 mM phosphate buffer, thereby obtaining the pure glufosinate-ammonium dehydrogenase; and (5)wash the Ni-NTA column with 5 column volumes of a binding buffer(pH 8.0, 50 mM sodium phosphate buffer containing 0.3 M NaCl) until the baseline is steady, and store the Ni-NTA column in 5 column volumes of ultrapure water containing 20% ethanol.

[2] = target: Pseudomonas moorei glufosinate-ammonium dehydrogenase E3 (PPTGDH, PPTGDHE3, WP_090325311.1), wild type, SEQ ID NO: 6 (Pseudomonas moorei, UniProt A0A1H1HZ48); experiment: Kinetic parameters of purified original glufosinate-ammonium dehydrogenase PPTGDH; conditions: pH 7.4, 35° C.
Experimental: as §1

SMILES | catalytic efficiency for the coenzyme NADPH, times higher than that of the original enzyme ([1]; mutant vs original enzyme) | kcat/Km^A (NADPH) ([1]; pH 7.4, 35° C.) | kcat/Km^B (PPO) [2] | catalytic efficiency kcat/Km^B (PPO), times higher than that of the original enzyme ([1]; mutant vs original enzyme) | kcat/Km^B (PPO) ([1]; pH 7.4, 35° C.)
NC(=O)C1=CN([C@@H]2O[C@H](COP(=O)(O)OP(=O)(O)OC[C@H]3O[C@@H](n4cnc5c(N)ncnc54)[C@H](OP(=O)(O)O)[C@@H]3O)[C@@H](O)[C@H]2O)C=CC1 [NADPH] | 34.61 times | 1.3703e+07 M⁻¹ s⁻¹ |  |  | 
CP(=O)(O)CCC(=O)C(=O)O [PPO, 2-carbonyl-4-[(hydroxy)(methyl)phosphinoyl]-butyric acid] |  |  | 15220 M⁻¹ s⁻¹ | 22.19 times | 337730 M⁻¹ s⁻¹

From US12031160B2, “Method for the production of glufosinate-ammonium” (ZHEJIANG UNIVERSITY OF TECHNOLOGY, priority 2018, dated 2024)
